In ChEMBL document CHEMBL3112489 (Bioorg Med Chem Lett, 2014) one finds Ki data, which are given here for 30 compounds.

The structures appear in SMILES notation.

For orientation: Ki means the dissociation constant of the complex between target and ligand, obtained from inhibition or displacement. A lower Ki goes with a stronger hold on the target.

Assay [1] can be described thus: Inhibition of Legionella pneumophila carbonic anhydrase 2 preincubated for 15 mins by stopped-flow CO2 hydrase assay.
Assay [2] in a line: Inhibition of Legionella pneumophila carbonic anhydrase 1 preincubated for 15 mins by stopped-flow CO2 hydrase assay.

For the compound `[Cl-].[Na+]` [SODIUM CHLORIDE], the values for the Ki in assay [1] and in assay [2] were 810 µM and 790 µM, respectively.
As for `OB(O)c1ccccc1` [PHENYLBORONIC ACID], the Ki in assay [1] worked out at 6 µM; in assay [2], 65 µM.
The corresponding values for `O=BOB(O)OB(O)OB=O` [SODIUM TETRABORATE] are 550 µM and 600 µM.
For the compound `O=NO` [SODIUM NITRITE], the Ki was found to be 5800 µM in assay [1] and 7900 µM in assay [2].
For `O=S([O-])O.[Na+]` [SODIUM BISULFITE], the Ki came to 7200 µM in assay [1] and 6600 µM in assay [2].
In the same order, the values of `O=S(=O)([O-])[O-].[Na+].[Na+]` [SODIUM SULFATE ANHYDROUS] are 96500 µM and 77900 µM.
In the same order, the values of `O=[As](O)(O)c1ccccc1` [PHENYLARSONIC ACID] are 8 µM and 84 µM.
In the same order, the values of `CC(=O)Nc1nnc(S(N)(=O)=O)s1` [ACETAZOLAMIDE] are 0.036 µM and 0.095 µM.
`O=C([O-])O.[Na+]` [SODIUM BICARBONATE]: the Ki in assay [1] amounted to 6600 µM; in assay [2], 3500 µM.
In the same order, the values of `[N-]=[N+]=[N-]` [SODIUM AZIDE] are 450 µM and 77 µM.
In the same order, the values of `N=C=[Se]` [SODIUM ISOSELENOCYANATE] are 660 µM and 980 µM.
In the same order, the values of `N=C=S` [SODIUM ISOTHIOCYANATE] are 880 µM and 520 µM.
As for `O=S(=O)(O)NS(=O)(=O)O` [SODIUM IMINODISULFONATE], the Ki stood at 590 µM in assay [1] and 1170 µM in assay [2].
In the same order, the values of `O=[N+]([O-])[O-].[Na+]` [SODIUM NITRATE] are 30100 µM and 7600 µM.
Consider `[Br-].[Na+]` [SODIUM BROMIDE], for which the Ki was determined as 8000 µM in assay [1] and 650 µM in assay [2].
In the same order, the values of `S` [SODIUM HYDROSULFIDE] are 510 µM and 76 µM.
For `[O-][Cl+3]([O-])([O-])O` [SODIUM PERCHLORATE], the Ki in assay [1] and in assay [2] was greater than 200000 µM throughout.
On to `O=P(O)(O)OP(=O)(O)O` [SODIUM PYROPHOSPHATE], for which the results for the Ki in assay [1] and in assay [2] were 830 µM and 940 µM, respectively.
The corresponding values for `NS(=O)(=O)O` [SULFAMATE] are 13 µM and 76 µM.
In the same order, the values of `S=C(S)S` [SODIUM CARBONOTRITHIOATE] are 620 µM and 530 µM.
The corresponding values for `O=[Te](=O)(O)O` [SODIUM TELLURATE] are 290 µM and 240 µM.
Regarding `[I-].[Na+]` [SODIUM IODIDE], the Ki in assay [1] was 59100 µM; in assay [2] it was 320 µM.
In the same order, the values of `CCN(CC)C(=S)S` [DITIOCARB SODIUM] are 2 µM and 6 µM.
In the same order, the values of `[F-].[Na+]` [SODIUM FLUORIDE] are 770 µM and 910 µM.
In the same order, the values of `O=C([O-])[O-].[Na+].[Na+]` [SODIUM CARBONATE] are 4800 µM and 4700 µM.
Consider `N#CO` [SODIUM CYANATE], for which the Ki in assay [1] was 960 µM; in assay [2], 660 µM.
In the same order, the values of `O=S(=O)(O)OOS(=O)(=O)O` [SODIUM PERSULFATE] are 570 µM and 850 µM.
In the same order, the values of `F[B-](F)(F)F.[Na+]` [SODIUM TETRAFLUOROBORATE] are greater than 200000 µM and greater than 200000 µM.
The corresponding values for `O=[Se](=O)(O)O` [SODIUM SELENATE] are 660 µM and 7300 µM.
`NS(N)(=O)=O` [SULFAMIDE] returned a Ki in assay [2] of 94 µM.
